From patent US8148367B2 (Takeda Pharmaceutical Company Limited, priority 2008, dated 2012)
Read-outs that look alike come from different tables or passages of the source.

Molecular target: T1, Recombinant human renin (Homo sapiens, UniProt P00797)
T1 construct: isolate the active form (residues 67-406); made in house; host or cells: FreeStyle 293-F cells, transient expression of pcDNA3.1(+)/hREN
T1 sequence (P00797 67-406): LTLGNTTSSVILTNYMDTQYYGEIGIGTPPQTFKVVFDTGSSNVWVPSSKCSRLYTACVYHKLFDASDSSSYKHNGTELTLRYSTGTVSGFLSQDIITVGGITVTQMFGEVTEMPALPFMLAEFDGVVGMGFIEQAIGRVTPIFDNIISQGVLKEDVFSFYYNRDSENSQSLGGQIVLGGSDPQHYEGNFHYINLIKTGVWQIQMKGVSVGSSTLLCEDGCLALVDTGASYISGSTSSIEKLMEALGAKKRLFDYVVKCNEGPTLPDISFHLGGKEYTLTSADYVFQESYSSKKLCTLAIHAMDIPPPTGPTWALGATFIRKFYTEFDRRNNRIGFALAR
Assay: In vitro enzymatic activity assay of renin inhibitors (fluorescence, QXL520/HiLyteFluo488 peptide substrate)
Type: biochemical

[1] = recombinant human renin 3 nM, 1 μM substrate, pre-incubated 10 minutes at 37° C., incubation one hour, pH 7.4, 5% DMSO, read-out: IC50 of Exemplified Compounds Against Renin

| Structure (SMILES) | IC50 [1] [nM] | IC50 [nM] |
| --- | --- | --- |
| NC(=O)Cn1c(C(=O)N2CCNC[C@H]2Cc2ccccc2)c(-c2ccccc2)n(C2CCCCC2)c1=O [Example 67, (R)-2-(5-(2-Benzylpiperazine-1-carbonyl)-3-cyclohexyl-2-oxo-4-phenyl-2,3-dihydro-1H-imidazol-1-yl)acetamide] | 100 to 500 | – |
| Cc1ccccc1-n1c(-c2ccccc2)c(C(=O)N2CCNCC2)n(CCCNC(=O)Oc2ccccc2)c1=O [Example 252, Phenyl 3-(2-oxo-4-phenyl-5-(piperazine-1-carbonyl)-3-o-tolyl-2,3-dihydro-1H-imidazol-1-yl)propylcarbamate] | – | > 1000 |
| Cc1ccccc1-n1c(-c2ccccc2)c(C(=O)N2CCNCC2)n(CCNS(=O)(=O)c2ccccc2Cl)c1=O [Example 204, 2-Chloro-N-(2-(2-oxo-4-phenyl-5-(piperazine-1-carbonyl)-3-o-tolyl-2,3-dihydro-1H-imidazol-1-yl)ethyl)benzenesulfonamide] | 500 to 1000 | – |
| COCCCOc1cccc(-n2c(-c3ccccc3)c(C(=O)N3CCNCC3)[nH]c2=O)n1 [Example 36, 1-(6-(3-Methoxypropoxy)pyridin-2-yl)-5-phenyl-4-(piperazine-1-carbonyl)-1H-imidazol-2(3H)-one] | > 1000 | – |
| COCCCOc1cccc(-n2c(-c3ccccc3)c(C(=O)N3CCNCC3)n(Cc3cccc(OCCOC)c3)c2=O)c1 [Example 192, 1-(3-(2-Methoxyethoxy)benzyl)-3-(3-(3-methoxypropoxy)phenyl)-4-phenyl-5-(piperazine-1-carbonyl)-1H-imidazol-2(3H)-one] | > 1000 | – |
| O=C(c1[nH]c(=O)n(C2CCCCC2)c1-c1ccccc1)N1CCNCC1 [Example 29, 1-Cyclohexyl-5-phenyl-4-(piperazine-1-carbonyl)-1H-imidazol-2(3H)-one] | 500 to 1000 | – |
| C=CCn1c(C(=O)N2CCNC[C@H]2Cc2ccccc2)c(-c2ccccc2)n(C2CCCCC2)c1=O [Example 64, (R)-1-Allyl-5-(2-benzylpiperazine-1-carbonyl)-3-cyclohexyl-4-phenyl-1H-imidazol-2(3H)-one] | < 100 | – |
| Cc1ccccc1-n1c(-c2ccccc2)c(C(=O)N2CCNCC2)n(CCNC(=O)Nc2ccc(Cl)cc2)c1=O [Example 213, 1-(4-Chlorophenyl)-3-(2-(2-oxo-4-phenyl-5-(piperazine-1-carbonyl)-3-o-tolyl-2,3-dihydro-1H-imidazol-1-yl)ethyl)urea] | 100 to 500 | – |
| CC1CN(C(=O)c2[nH]c(=O)n(C3CCCCC3)c2-c2ccccc2)CCN1 (centres unmarked) [Example 38, 1-Cyclohexyl-4-(3-methylpiperazine-1-carbonyl)-5-phenyl-1H-imidazol-2(3H)-one] | > 1000 | – |

Second part, led by results:

| IC50 [1] [nM] | Structure (SMILES) | IC50 [nM] |
| --- | --- | --- |
| > 1000 | COC(=O)NCCCn1c(C(=O)N2CCNCC2)c(-c2ccccc2)n(-c2ccccc2C)c1=O [Example 253, Methyl 3-(2-oxo-4-phenyl-5-(piperazine-1-carbonyl)-3-o-tolyl-2,3-dihydro-1H-imidazol-1-yl)propylcarbamate] | – |
| 100 to 500 | O=C(c1c(-c2ccccc2)n(-c2ccccc2)c(=O)n1Cc1ccccc1)N1CCNCC1 [Example 45, 1-Benzyl-3,4-diphenyl-5-(piperazine-1-carbonyl)-1H-imidazol-2(3H)-one] | – |
| > 1000 | COc1ccccc1-n1c(-c2ccccc2)c(C(=O)N2CCNCC2)n(CC2CCCCC2)c1=O [Example 160, 1-(Cyclohexylmethyl)-3-(2-methoxyphenyl)-4-phenyl-5-(piperazine-1-carbonyl)-1H-imidazol-2(3H)-one] | – |
| 100 to 500 | COc1cccc(Cn2c(C(=O)N3CCNCC3)c(-c3ccccc3)n(-c3cccc(N4CCOCC4)c3)c2=O)c1 [Example 151, 1-(3-Methoxybenzyl)-3-(3-morpholinophenyl)-4-phenyl-5-(piperazine-1-carbonyl)-1H-imidazol-2(3H)-one] | – |
| 500 to 1000 | Nc1nc(Cn2c(C(=O)N3CCNCC3)c(-c3ccccc3)n(-c3ccccc3)c2=O)cs1 [Example 50, 1-((2-Aminothiazol-4-yl)methyl)-3,4-diphenyl-5-(piperazine-1-carbonyl)-1H-imidazol-2(3H)-one] | – |
